The structures appear in SMILES notation.

The conditions of series [1]: as reported by Sigma-Aldrich; cited from earlier work.
The nature of series [2]: Solubility in water, effect of levothyroxine sodium particle size. It is filed as physicochemical. The note with it: observed after 24 hours. On the procedure:
The solubilities of batches of levothyroxine sodium micronized (D99<13 μm) and not micronized (D99<125 μm) were investigated. Preparations with several amounts of active ingredient in a fixed volume of water were observed after 24 hours. In both cases, less than 100 μg of levothyroxine sodium was soluble per ml of water.

Series [3] in a line: Solubility of levothyroxine sodium, effect of pH. It is filed as physicochemical. An excerpt: To have an acceptable biological pH and to improve the solubility of levothyroxine, the pH preferably is at least about 8, or at least about 9.
Series [4] in a line: Stability of levothyroxine sodium in aqueous HPBCD solution with or without stabilizers. The class given is physicochemical. The note with it: experiments of Tables 2-4. From the text:
The stability of levothyroxine sodium in an aqueous solution of HPBCD with or without stabilization was investigated.

The nature of series [5]: Stability of levothyroxine sodium in aqueous HPBCD solutions with phosphate and carbonate buffers, sealed container. The class given is physicochemical. The note with it: experiments of Table 9. An excerpt:
Applicants investigated the stability of levothyroxine sodium in aqueous HPBCD solutions with phosphate and carbonate buffers in a sealed container.

Series [6] can be described thus: Solubility in aqueous HPBCD solution, effect of complexing agent and copolymers. It is filed as physicochemical. The protocol:
In an aqueous solution of 30% (w/w) HPBCD (Kleptose HPB, Roquette, France), 1000 μg/ml of levothyroxine sodium was dissolved. Applicants have observed that similar levothyroxine sodium solubilities may be achieved at lesser concentrations of HPBCD by adding a copolymer(s), such as, for example, sodium carboxymethyl cellulose (“CMC”), hydroxypropylmethylcellulose 4000 (“HPMC”), and/or povidone 12PF.
0.5% w/w of CCM and 15% (w/w) of HPBCD,
0.5% w/w of HPMC and 20% (w/w) of HPBCD, or
2% w/w of Povidone 12PF and 20% (w/w) of HPBCD.

For the compound `CC(C)(N)CO` [AMP, 2-amino-2-methyl-1-propanol], the “effective pH range” value in series [1] is 8.7-10.4.

As to `O=S(=O)(O)CCCCNC1CCCCC1` [CABS, 4-[cyclohexylamino]-1-butanesulfonic acid], the “effective pH range” value in series [1] was 10.0-11.4.

Regarding `O=S(=O)(O)CCCNC1CCCCC1` [CAPS, N-cyclohexyl-3-aminopropanesulfonic acid], the “effective pH range” value in series [1] is 9.7-11.1.

Take `O=S(=O)(O)CC(O)CNC1CCCCC1` (stereo not shown) [CAPSO, 3-[cyclohexylamino]-2-hydroxy-1-propanesulphonic acid]: the “effective pH range” value in series [1] is on record as 8.9-10.3.

`NCC(=O)O` [Glycine]: in series [1], the “effective pH range” value is 8.8-10.6 and the pKa2 is given as 9.78.

`CN` [Methylamine]: the “effective pH range” value in series [1] was 9.5-11.5.

On to `NCCO` [ethanolamine], for which, in series [1], the “effective pH range” value is given as 6.0-12.0.

For `N[C@@H](Cc1cc(I)c(Oc2cc(I)c(O)c(I)c2)c(I)c1)C(=O)[O-].[Na+]` [levothyroxine sodium], the “levothyroxine sodium soluble per ml of water” value in series [2] (micronized (D99<13 μm)) and in series [2] (not micronized (D99<125 μm)) was “less than 100 μg per ml” in each case. Besides, the solubility in series [3] (pH 7.3) worked out at 28 µg/mL. Also, the “solubility relative to pH 7.3” value in series [3] (pH 9.4) stood at 7 times greater; in series [3] (pH 10.45), 11 times greater. The “compatibility with HPBCD in aqueous solution” value in series [4] and in series [5] was “did not exhibit incompatibility” each time. For the same compound, the levothyroxine sodium dissolved stood at 1000 µg/mL in series [6] (aqueous solution of 30% (w/w) HPBCD); 1000 µg/mL in series [6] (aqueous solution, 0.5% w/w of CCM and 15% (w/w) of HPBCD); 1000 µg/mL in series [6] (aqueous solution, 0.5% w/w of HPMC and 20% (w/w) of HPBCD); 1000 µg/mL in series [6] (aqueous solution, 2% w/w of Povidone 12PF and 20% (w/w) of HPBCD).

Broadly, the solubility is how much of the substance goes into solution per volume. High values mean a readily soluble substance, low ones a poorly soluble substance.

These data come from patent publication US8318712B2, “Concentrated liquid thyroid hormone composition” (Intervet International B.V., priority 2006, dated 2012).
